Results on 31 molecules are retold here after ChEMBL document CHEMBL4610076, “Renoprotective Mono- and Triterpenoids from the Fruit of Gardenia jasminoides” (J Nat Prod, 2020).

The subject of this test is NRK-52E. Description: Cytoprotective activity against LPS-induced NRK-52E cells assessed as reduction in cell death measured every 5 min for 72 hrs by xCELLigence based RTCA analysis. The settings on record: Rattus norvegicus. The format is functional.

Each structure is given as a SMILES string.

As usually defined, the EC50 is the midpoint of the concentration-response curve. Regarding `C=C(CO)[C@@H]1CC[C@@H]2[C@]3(CC[C@]4(C)[C@@H]([C@H](CO)CC/C=C(/C)CO)CC[C@@]24C)C[C@]13CCC(=O)OC`, the EC50 is above 100 µM.

Turning to `C[C@@H]1CC[C@]2(C(=O)O)CC[C@]3(C)C(=CC[C@@H]4[C@@]5(C)CC[C@H](O)C(CO)(CO)[C@@H]5CC[C@]43C)[C@@H]2[C@]1(C)O`, the EC50 is 1.6 µM.

As for `Cc1ccc2c(c1C)C1=CC[C@@H]3[C@@]4(C)CC[C@H](O)C(CO)(CO)[C@@H]4CC[C@@]3(C)[C@]1(C)C[C@@H]2O`, the EC50 is above 100 µM.

As for `C=C(C)[C@@H]1CC[C@@H]2[C@]3(CC[C@]4(C)[C@@H]([C@@H]5CC[C@H]([C@](C)(O)CO)OC5)CC[C@@]24C)C[C@]13CCC(=O)O`, the half-maximal effective concentration (EC50) turned out to be 38.4 µM.

With `CC1(C)CC(=O)C=C(C(=O)O)[C@]1(C)O`, the concentration giving a half-maximal response (EC50) was above 100 µM.

Turning to `CC1(C)CC[C@]2(C(=O)O)CC[C@]3(C)C(=CC[C@@H]4[C@@]5(C)CC[C@H](O)[C@@](C)(CO)[C@@H]5[C@H](O)C[C@]43C)[C@@H]2[C@@H]1O`, the EC50 was found to be 0.118 µM.

`C[C@H]1[C@H](C)CC[C@]2(C(=O)O)CC[C@]3(C)C(=CC[C@@H]4[C@@]5(C)CC[C@H](O)[C@@](C)(CO)[C@@H]5CC[C@]43C)[C@H]12`: the EC50 was above 100 µM.

For the molecule `C[C@@H]1CC[C@]2(C(=O)O)CC[C@]3(C)C(=CC[C@@H]4[C@@]5(C)CC[C@H](O)[C@@](C)(CO)[C@@H]5[C@H](O)C[C@]43C)[C@@H]2[C@]1(C)O`, the half-maximal effective concentration (EC50) is above 100 µM.

With `CC1=C(C(=O)O)C(C)(C)C[C@H](O)[C@@H]1O`, the EC50 is 0.146 µM.

Take `C[C@@H]1CC[C@]2(C(=O)O)CC[C@]3(C)C(=CC[C@@H]4[C@@]5(C)CC[C@H](O)C(C)(C)[C@@H]5CC[C@]43C)[C@@H]2[C@]1(C)O` [POMOLIC ACID]: the EC50 was determined as 0.0142 µM.

Take `CC1(C)C[C@H](O)[C@H](O[C@@H]2O[C@H](CO)[C@@H](O)[C@H](O)[C@H]2O)C2=C1C(=O)OC2`: the 50% effective concentration (EC50) was above 100 µM.

Turning to `C=C(C)[C@@H]1CC[C@@H]2[C@]3(CC[C@]4(C)[C@@H]([C@@H]5CC[C@H]([C@](C)(O)CO)OC5)CC[C@@]24C)C[C@]13CCC(=O)OC`, the concentration for a half-maximal effect (EC50) is above 100 µM.

Regarding `C=C(C)[C@@H]1CC[C@@H]2[C@]3(CC[C@]4(C)[C@@H]([C@H](CO)CC/C=C(/C)CO)CC[C@@]24C)C[C@]13CCC(=O)O`, the 50% effective concentration (EC50) amounted to 11.5 µM.

As to `CC1=CC(=O)CC(C)(C)[C@]1(O)CO`, the EC50 is above 100 µM.

In the case of `CC1=C(CO)C(C)(C)C[C@H](O)[C@H]1O`, the EC50 is above 100 µM.

Take `CC1=C(CO)C(C)(C)C[C@H](O)[C@@H]1O[C@@H]1O[C@H](CO)[C@@H](O)[C@H](O)[C@H]1O`: the EC50 was above 100 µM.

Consider `CC1=C(C(=O)O[C@@H]2O[C@H](CO)[C@@H](O)[C@H](O)[C@H]2O)C(C)(C)CC[C@@H]1O`, for which the EC50 is above 100 µM.

With `CC1=C(C(=O)O)C(C)(C)[C@@H](O)[C@H](O)C1`, the concentration for a half-maximal effect (EC50) was above 100 µM.

As for `CC1(C)CC(O)CC2=C1C(=O)OC2` (stereo unspecified), the 50% effective concentration (EC50) is above 100 µM.

On to `CC1(C)CC(=O)C=C(C(=O)O)[C@@]1(C)O`, for which the EC50 is above 100 µM.

Regarding `C=C1C(CO[C@@H]2O[C@H](COC(=O)/C=C/c3cc(OC)c(O)c(OC)c3)[C@@H](O)[C@H](O)[C@H]2O)=CC(=O)CC1(C)C`, the EC50 is above 100 µM.

Regarding `COc1cc(/C=C/C(=O)OC[C@H]2O[C@@H](OC[C@H]3C(C)=CC(=O)CC3(C)C)[C@H](O)[C@@H](O)[C@@H]2O)cc(OC)c1O`, the EC50 stood at 35.6 µM.

For `CC1=C(C(=O)O)C(C)(C)C=CC1=O`, the concentration giving a half-maximal response (EC50) is above 100 µM.

Take `CC1=CC(=O)CC(C)(C)[C@@H]1CO`: the EC50 stood at 1.4 µM.

Take `CC1=CC(=O)CC(C)(C)[C@H]1CO[C@@H]1O[C@H](CO)[C@@H](O)[C@H](O)[C@H]1O`: the 50% effective concentration (EC50) was found to be 1.2 µM.

For `CC1=CC(=O)CC(C)(C)[C@@H]1CO[C@@H]1O[C@H](CO)[C@@H](O)[C@H](O)[C@H]1O`, the concentration for a half-maximal effect (EC50) is above 100 µM.

On to `COC(=O)CC[C@]12C[C@]13CC[C@]1(C)[C@@H]([C@H](CO)CC/C=C(/C)CO)CC[C@@]1(C)[C@@H]3CC[C@H]2C(C)(C)O`, for which the EC50 was 26.8 µM.

On to `CO[C@H]1C[C@]2(C)C(=CC[C@@H]3[C@@]4(C)CC[C@H](O)C(CO)(CO)[C@@H]4CC[C@]32C)c2c1ccc(C)c2C`, for which the EC50 was above 100 µM.

As for `Cc1c(C)c2c(c(C)c1O)CCC(C)(C(=O)O)O2` (stereo unspecified) [TROLOX], the EC50 worked out at 1.9 µM.

As for `C=C(C)[C@@H]1CC[C@@H]2[C@]3(CC[C@]4(C)[C@@H]([C@H](CO)CC/C=C(/C)CO)CC[C@@]24C)C[C@]13CCC(=O)OC`, the EC50 is above 100 µM.

`CC1=C(CO)C(C)(C)C[C@H](O)[C@@H]1O`: the EC50 is above 100 µM.
